# Test results from patent US20250304916A1, “METHODS AND COMPOSITIONS FOR GENERATING VASCULAR LEPTOMENINGEAL CELLS” (Trailhead Biosystems Inc., priority 2024, published 2025).
# Values joined by “and” are separate entries in the source; they are usually repeats but may differ in a detail not shown here. Identical values can stand only once.
# How the values were obtained:
# Assay type in all cases: cell-based, human
# PDGFRA expression = test: HD-DoE 8-factor modeling experiment (stage 3), model optimized for maximum expression of PDGFRA; details: FIG. 2; for factor contribution, negative impact on PDGFRA expression: model optimized for maximum expression of PDGFRA; for factor contribution, positive impact on PDGFRA expression: model optimized for maximum expression of PDGFRA at 853
# Experimental: (§1) To engineer the recipe of stage 3 of differentiation, cells were first cultured in stage 1 and stage 2 media (described in detail in US Publications 2022/0315891 and 2024/0043798). Then, 48 or 96 different combinations of effectors generated using HD-DoE compression through D-optimality were robotically prepared. The effector combinations were prepared in a basal media and were subsequently added to the cells, which were then allowed to differentiate. 3 days later RNA extraction was performed, and gene expression was obtained using quantitative PCR analysis. The data was normalized and modeled using partial least squares regression analysis to the effector design, resulting in the generation of gene-specific models, which after model tuning for maximal predictive power, provided explanation of the effectors ability to control the expression of individual genes, combinatorically, and individually. Solutions within the tested space were then further explored to address desirability.
# (§2) In one 8-factor modeling experiment, the individual and combinatorial effect of CHIR99021 (a WNT pathway agonist), AGN193109 (an RA pathway antagonist), FGF-2 (FGFR pathway agonist), Purmorphamine (a SHH pathway agonist), TTNPB (an RA pathway agonist), IGF-1 (an IGF-1 pathway agonist), MHY1485 (a mTOR pathway agonist), and Sc79 (an Akt pathway agonist), on further differentiation of cells were tested. […] Sc79 had the highest negative impact on its expression with factor contribution of 30.
# The highest positive contribution was from Purmorphamine with factor contribution of 21 and IGF-1 with factor contribution of 11. MHY1485 and AGN193109 had the highest negative impact with factor contribution of 21 and 23, respectively (FIG. 2). […] When the model was optimized, expression levels were observed of NKX2-2 at 1200, OLIG1 at 550, OLIG2 at 1000, PDGFRA at 500, SOX8 at 70, and SOX10 at 35 (FIG. 4).
# SOX10 expression = test: HD-DoE 8-factor modeling experiment (stage 3), model optimized for maximum expression of SOX10, qPCR gene expression; details: for effect on expression of SOX10 (dynamic profile): model optimized for maximal SOX10 expression, FIG. 4; for factor contribution, positive regulatory effect on SOX10 expression: model optimized for maximum expression of SOX10 at 40
# Experimental: as §1, §2
# SOX8 expression = test: HD-DoE 8-factor modeling experiment (stage 3), model optimized for maximal expression of SOX8; details: FIG. 3
# Experimental: as §1
# In one 8-factor modeling experiment, the individual and combinatorial effect of CHIR99021 (a WNT pathway agonist), AGN193109 (an RA pathway antagonist), FGF-2 (FGFR pathway agonist), Purmorphamine (a SHH pathway agonist), TTNPB (an RA pathway agonist), IGF-1 (an IGF-1 pathway agonist), MHY1485 (a mTOR pathway agonist), and Sc79 (an Akt pathway agonist), on further differentiation of cells were tested. […]
# [1] = tested on: OLIG1 and NKX2-2 expression; test: HD-DoE 12-factor modeling experiment (stage 3), models optimized for maximal expression of OLIG1 and NKX2-2 simultaneously; details: FIG. 5; for factor contribution, positive effect on upregulation of OLIG1 and NKX2-2: models optimized for OLIG1 (192) and NKX2-2 (486) simultaneously
# Experimental: as §1
# Another 12-factor modeling experiment was performed to study the effect of additional factors on expression level of target genes at stage 3. In this experiment, Activin A, Linoleic acid (a polyunsaturated fatty acid), DBZ (GSI-XX) (a NOTCH pathway inhibitor), ZM336372 (a c-Raf inhibitor), AZD3147 (a mTOR pathway inhibitor), PDGF-AA (a PDGF pathway agonist) and MK2206 (an Akt pathway inhibitor), along with AGN193109, TTNPB, FGF2, IGF-1, and MHY1485, were tested. According to literature, proteins such as FGF-2, IGF-1, and PDGF-AA play an important role in oligodendrocyte differentiation (Goldman and Kuypers (2015) Development 142:3983-95). Models were optimized for maximal expression of OLIG1 with expression level of 192 and NKX2-2 with expression level of 486 simultaneously. […] MK2206 with factor contribution of 19 had the highest negative impact on expression of these genes. […] To confirm the impact of identified factors on a bigger scale, the expression profile of a larger group of genes defining late oligodendrocyte progenitor population (Perlman et al. (2020) Glia 68:1291-1303; Goldman and Kuypers (2015) Development 142:3983-95; van Tilborg et al. (2018) Glia 66:221-238) was investigated. At maximal expression of OLIG1 and NKX2-2, other desired genes such as CNP, IGFBP2, MYC, and MYT-1 were highly expressed, while neuronal genes, NEUROD1, NEUROG1, and NEUROG2 had expression levels less than 30.
# MBP expression = test: HD-DoE 8-factor model (stage 4), optimized for maximum expression of MBP; details: model optimized for MBP at 274; FIG. 6
compound,measurement,setting,value
Cc1ccc(C2=CCC(C)(C)c3ccc(C#Cc4ccc(C(=O)O)cc4)cc32)cc1 [AGN193109],"factor contribution, negative impact on PDGFRA expression",PDGFRA expression,23
Cc1c[nH]c(-c2cnc(NCCNc3ccc(C#N)cn3)nc2-c2ccc(Cl)cc2Cl)n1 [CHIR99021],effect on expression of SOX10 (dynamic profile),SOX10 expression,positive effect
same,"factor contribution, positive regulatory effect on SOX10 expression",SOX10 expression; FIG. 1,8
same,"factor contribution, positive impact on PDGFRA expression",PDGFRA expression,8
O=[N+]([O-])c1ccc(Nc2nc(N3CCOCC3)nc(N3CCOCC3)n2)cc1 [MHY1485],"factor contribution, negative impact on PDGFRA expression",PDGFRA expression,21
same,"factor contribution, positive effect on SOX8 expression",SOX8 expression,13 and 13.2
NC1(c2ccc(-c3nc4ccn5c(=O)[nH]nc5c4cc3-c3ccccc3)cc2)CCC1 [MK2206],"factor contribution, negative impact on expression of OLIG1 and NKX2-2",[1]; models optimized for OLIG1 and NKX2-2 simultaneously,19
c1ccc2c(Oc3nc(Nc4ccc(N5CCOCC5)cc4)c4ncn(C5CCCCC5)c4n3)cccc2c1 [Purmorphamine],"factor contribution, positive impact on PDGFRA expression",PDGFRA expression,21 and 20.6
CCOC(=O)C1=C(N)Oc2ccc(Cl)cc2C1C(C#N)C(=O)OCC (centres unmarked) [Sc79],"factor contribution, negative impact on SOX10 expression","SOX10 expression; model optimized for maximum expression of SOX10, FIG. 1",30
N[C@@H](Cc1cc(I)c(Oc2ccc(O)c(I)c2)c(I)c1)C(=O)O [T3],"factor contribution, positive impact on MBP expression",MBP expression,18.1
C/C(=C\c1ccc(C(=O)O)cc1)c1ccc2c(c1)C(C)(C)CCC2(C)C [TTNPB],effect on expression of SOX10 (dynamic profile),SOX10 expression,positive effect
same,"factor contribution, positive regulatory effect on SOX10 expression",SOX10 expression; FIG. 1,18
same,"factor contribution, positive impact on PDGFRA expression",PDGFRA expression,0.6
CCCCC/C=C\C/C=C\CCCCCCCC(=O)O [linoleic acid],"factor contribution, positive effect on upregulation of OLIG1 and NKX2-2",[1],12
Dibenzazepine [DBZ],"factor contribution, positive impact on MBP expression",MBP expression,18.1
same,"factor contribution, positive effect on upregulation of OLIG1 and NKX2-2",[1],13
same,"factor contribution, positive effect on upregulation of OLIG1 and NKX2-2",[1]; listed as GSI-XX (DBZ),13.2
FGF-2: FGFR pathway agonist; naturally occurring ligand,effect on expression of SOX10 (dynamic profile),SOX10 expression,positive effect
same,"factor contribution, positive regulatory effect on SOX10 expression",SOX10 expression; FIG. 1,15
IGF-1: insulin-like growth factor 1; an IGF-1 pathway agonist,expression level of SOX10 after addition of IGF-1 to the suggested recipe,"SOX10 expression; dynamic profile analysis, decreased from 40 without IGF-1",35
same,"factor contribution, positive impact on PDGFRA expression",PDGFRA expression,11 and 11.22
same,"factor contribution, positive effect on SOX8 expression",SOX8 expression,16 and 15.6
PDGF-AA: a PDGF pathway agonist; ligand of a PDGFR,"factor contribution, positive effect on upregulation of OLIG1 and NKX2-2",[1],21
